From PMC12575627 (Nature Communications, 2025)

Columns and labels:
Test in all cases: […]CABP radioligand binding
Format in all cases: biochemical
Conditions in all cases: labelled compound, E. coli soluble protein
RrRubisco (RrL2) = molecular target: T1, RrRubisco (RrL2) (Rhodospirillum rubrum, UniProt P04718)
T1 sequence (P04718 1-466): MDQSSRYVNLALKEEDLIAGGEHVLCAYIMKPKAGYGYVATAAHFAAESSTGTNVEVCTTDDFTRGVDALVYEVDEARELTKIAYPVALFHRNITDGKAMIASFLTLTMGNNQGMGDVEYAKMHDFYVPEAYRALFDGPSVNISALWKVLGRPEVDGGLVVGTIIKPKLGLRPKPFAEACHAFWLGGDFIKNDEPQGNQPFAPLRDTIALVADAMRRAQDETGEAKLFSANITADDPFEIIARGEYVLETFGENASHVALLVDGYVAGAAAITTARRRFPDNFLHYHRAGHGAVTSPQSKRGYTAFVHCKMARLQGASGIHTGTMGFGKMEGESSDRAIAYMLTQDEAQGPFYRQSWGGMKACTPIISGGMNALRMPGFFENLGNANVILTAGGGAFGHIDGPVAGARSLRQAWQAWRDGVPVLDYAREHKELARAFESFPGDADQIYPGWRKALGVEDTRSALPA

RrL^c2 = molecular target: T2, RrL^c2 (Rhodospirillum rubrum, UniProt P04718)
T2 sequence (P04718 1-466): T1 sequence (P04718 1-466)

Rr^cL2 = molecular target: T3, Rr^cL2 (Rhodospirillum rubrum, UniProt P04718)
T3 sequence (P04718 1-466): T1 sequence (P04718 1-466)

## O=C(O)[C@@](O)(COP(=O)(O)O)[C@H](O)[C@H](O)COP(=O)(O)O [14CABP]
RrRubisco (RrL2)
  14CABP radioligand binding (active-site quantification): CLP tagging to RbcL was found to have no measurable impact on RrRubisco formation
RrL^c2
  14CABP radioligand binding (active-site quantification): CLP tagging to RbcL was found to have no measurable impact on RrRubisco formation
Rr^cL2
  14CABP radioligand binding (active-site quantification): CLP tagging to RbcL was found to have no measurable impact on RrRubisco formation
